Laboratory results published in patent US12565501B2, “Muscarinic acetylcholine M1 receptor antagonists” (Contineum Therapeutics, Inc., priority 2019, dated 2026).

Biological target: T1, human M1 receptor (Homo sapiens, UniProt P11229)
T1 sequence (P11229 1-460): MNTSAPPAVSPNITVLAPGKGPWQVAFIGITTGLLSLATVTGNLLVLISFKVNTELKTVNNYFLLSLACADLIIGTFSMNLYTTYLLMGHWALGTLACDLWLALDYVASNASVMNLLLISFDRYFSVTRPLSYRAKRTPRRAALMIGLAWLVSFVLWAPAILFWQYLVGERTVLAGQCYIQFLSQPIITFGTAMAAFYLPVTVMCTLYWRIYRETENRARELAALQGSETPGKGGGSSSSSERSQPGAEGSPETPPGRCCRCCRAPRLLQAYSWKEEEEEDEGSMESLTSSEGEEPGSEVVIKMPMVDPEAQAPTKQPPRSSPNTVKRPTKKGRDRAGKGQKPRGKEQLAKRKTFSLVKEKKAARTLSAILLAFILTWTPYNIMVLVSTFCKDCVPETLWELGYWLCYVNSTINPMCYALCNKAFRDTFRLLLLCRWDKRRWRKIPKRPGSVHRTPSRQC
Assay: In vitro functional assay of muscarinic acetylcholine receptor activity (aequorin calcium flux, reversal of EC80 acetylcholine response)
Type: cell-based
Conditions: CHO-K1 cells stably expressing human M1 receptor with aequorin; acetylcholine at EC80; calcium flux (luminescence); read-out: M1 IC50
Method in brief: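 Antagonist mode: compound (final 0.1% DMSO) and coelenterazine-loaded M1/aequorin CHO-K1 cells incubated 30 min in the dark before EC80 acetylcholine addition. Calcium flash integrated as 40 s luminescence AUC; IC50 derived from dose-response curves.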

Row | Structure (SMILES) | IC50 [nM]
1 | COc1cc(C2(NCC(=O)N3CC4CCC(C3)N4c3ccc(C#N)cn3)CC2)ccc1F [Example 109, 6-(3-((1-(4-fluoro-3-methoxyphenyl)cyclopropyl)glycyl)-3,8-diazabicyclo[3.2.1]octan-8-yl)nicotinonitrile] | < 10
2 | COc1cc(F)cc(C2(NCC(=O)N3CC4CCC(C3)N4c3ccc(C#N)cn3)CC2)c1 [Example 110, 6-(3-((1-(3-fluoro-5-methoxyphenyl)cyclopropyl)glycyl)-3,8-diazabicyclo[3.2.1]octan-8-yl)nicotinonitrile] | < 10
3 | COc1ccc(F)c(C2(NCC(=O)N3CC4CCC(C3)N4c3ccc(C#N)cn3)CC2)c1 [Example 111, 6-(3-((1-(2-fluoro-5-methoxyphenyl)cyclopropyl)glycyl)-3,8-diazabicyclo[3.2.1]octan-8-yl)nicotinonitrile] | < 10
4 | COc1c(F)ccc(C2(NCC(=O)N3CC4CCC(C3)N4c3ccc(C#N)cn3)CC2)c1F [Example 112, 6-(3-((1-(2,4-difluoro-3-methoxyphenyl)cyclopropyl)glycyl)-3,8-diazabicyclo[3.2.1]octan-8-yl)nicotinonitrile] | < 10
5 | COc1cc(C2(NCC(=O)N3CC4CCC(C3)N4c3ccc(C#N)cn3)CC2)c(F)cc1F [Example 113, 6-(3-((1-(2,4-difluoro-5-methoxyphenyl)cyclopropyl)glycyl)-3,8-diazabicyclo[3.2.1]octan-8-yl)nicotinonitrile] | < 10
6 | COc1cccc(C2(NCC(=O)N3CC4CCC(C3)N4c3ccc(C#N)cn3)CCC2)c1 [Example 114, 6-(3-((1-(3-methoxyphenyl)cyclobutyl)glycyl)-3,8-diazabicyclo[3.2.1]octan-8-yl)nicotinonitrile] | < 10
7 | N#Cc1ccc(N2C3CCC2CN(C(=O)CNC2(c4ccc(F)cc4F)CCC2)C3)nc1 [Example 115, 6-(3-((1-(2,4-difluorophenyl)cyclobutyl)glycyl)-3,8-diazabicyclo[3.2.1]octan-8-yl)nicotinonitrile] | 10 to 100
8 | COc1ccc(F)c(C2(NCC(=O)N3CC4CCC(C3)N4c3ccc(C#N)cn3)CCC2)c1 [Example 116, 6-(3-((1-(2-fluoro-5-methoxyphenyl)cyclobutyl)glycyl)-3,8-diazabicyclo[3.2.1]octan-8-yl)nicotinonitrile] | 10 to 100
9 | COc1ccc(F)c(C2(NCC(=O)N3CC4CCC(C3)N4c3ccc(C#N)cn3)CCC2)c1F [Example 117, 6-(3-((1-(2,6-difluoro-3-methoxyphenyl)cyclobutyl)glycyl)-3,8-diazabicyclo[3.2.1]octan-8-yl)nicotinonitrile] | 100 to 1000
10 | N#Cc1ccc(N2C3CCC2CN(C(=O)CNC2(c4cccc(OC(F)(F)F)c4)CCC2)C3)nc1 [Example 119, 6-(3-((1-(3-(trifluoromethoxy)phenyl)cyclobutyl)glycyl)-3,8-diazabicyclo[3.2.1]octan-8-yl)nicotinonitrile] | 100 to 1000
11 | N#Cc1ccc(N2C3CCC2CN(C(=O)CCC(F)(F)c2cccc4ncccc24)C3)nc1 [Example 122, 6-(3-(4,4-difluoro-4-(quinolin-5-yl)butanoyl)-3,8-diazabicyclo[3.2.1]octan-8-yl)nicotinonitrile] | < 10
12 | N#Cc1ccc(N2C3CCC2CN(C(=O)/C=C/C(F)(F)c2ccc(F)cc2)C3)nc1 [Example 123, 6-(3-((E)-4,4-difluoro-4-(4-fluorophenyl)but-2-enoyl)-3,8-diazabicyclo[3.2.1]octan-8-yl)nicotinonitrile] | 10 to 100
13 | N#Cc1ccc(N2C3CCC2CN(C(=O)CCC(F)(F)c2ccc(F)cc2)C3)nc1 [Example 124, 6-(3-(4,4-difluoro-4-(4-fluorophenyl)butanoyl)-3,8-diazabicyclo[3.2.1]octan-8-yl)nicotinonitrile] | 10 to 100
14 | N#Cc1ccc(N2[C@@H]3CC[C@H]2CN(C(=O)/C=C/C(F)(F)c2cccc4nccnc24)C3)nc1 [Example 125, 6-(3-((E)-4,4-difluoro-4-(quinoxalin-5-yl)but-2-enoyl)-3,8-diazabicyclo[3.2.1]octan-8-yl)nicotinonitrile] | < 10
